# From patent US8859491B2 (priority 2011, dated 2014)
# Non-standard residues stand in square brackets, D forms with d. No end group written: not given here. Aib = CC(C)(N)C(=O)O
# Tests used:
# [1] = Example 14: DIO mice, daily sc dosing; type: in vivo
# Protocol: Diet-induced obesity (DIO) mice (N=8, 6 mice per group, average initial body weight=58 g) were subcutaneously injected once per day for four weeks with vehicle or 4, 40, or 400 μg/kg of one of the following:
# A saline solution comprising 25% (v/v) glucose was injected at a dose of 1.5 g/kg of body weight at the 0 min time point on days 7 and 21. Blood glucose was measured at the 0, 15, 30, 60, and 120 min time points on day 7 and day 21 (FIG. 3a).
# Body weight was measured after 23 days and the change in body weight, change in fat mass, and change in lean muscle mass were determined (FIGS. 3b-d).
# [2] = Example 13: db/db mice, daily sc dosing; type: in vivo
# Protocol: Mice (db/db, N=6, average initial body weight=54 g) were subcutaneously injected once per day for four weeks with vehicle or 40 or 400 μg/kg of one of the following:
# Body weight was measured after 23 days and the change in body weight was determined (FIG. 2a).
# [3] = Administration of GLP-1 conjugates to diet induced obese mice (FIGS. 3-10, 12); type: in vivo; conditions: for change in blood glucose: FIG. 5b, SEQ ID NO: 1647 at high or low doses, SEQ ID NO: 1651 at high dose; for blood glucose levels: FIG. 7b
# [4] = biological target: T1, glucocorticoid receptor (Homo sapiens, UniProt P04150); experiment: EC50
# T1 construct: two clones of HeLa cells (ATCC #CCL-2) transfected with murine mammary tumor virus long terminal repeat-driven firefly luciferase; host or cells: HeLa
# T1 sequence (P04150 whole entry, looked up): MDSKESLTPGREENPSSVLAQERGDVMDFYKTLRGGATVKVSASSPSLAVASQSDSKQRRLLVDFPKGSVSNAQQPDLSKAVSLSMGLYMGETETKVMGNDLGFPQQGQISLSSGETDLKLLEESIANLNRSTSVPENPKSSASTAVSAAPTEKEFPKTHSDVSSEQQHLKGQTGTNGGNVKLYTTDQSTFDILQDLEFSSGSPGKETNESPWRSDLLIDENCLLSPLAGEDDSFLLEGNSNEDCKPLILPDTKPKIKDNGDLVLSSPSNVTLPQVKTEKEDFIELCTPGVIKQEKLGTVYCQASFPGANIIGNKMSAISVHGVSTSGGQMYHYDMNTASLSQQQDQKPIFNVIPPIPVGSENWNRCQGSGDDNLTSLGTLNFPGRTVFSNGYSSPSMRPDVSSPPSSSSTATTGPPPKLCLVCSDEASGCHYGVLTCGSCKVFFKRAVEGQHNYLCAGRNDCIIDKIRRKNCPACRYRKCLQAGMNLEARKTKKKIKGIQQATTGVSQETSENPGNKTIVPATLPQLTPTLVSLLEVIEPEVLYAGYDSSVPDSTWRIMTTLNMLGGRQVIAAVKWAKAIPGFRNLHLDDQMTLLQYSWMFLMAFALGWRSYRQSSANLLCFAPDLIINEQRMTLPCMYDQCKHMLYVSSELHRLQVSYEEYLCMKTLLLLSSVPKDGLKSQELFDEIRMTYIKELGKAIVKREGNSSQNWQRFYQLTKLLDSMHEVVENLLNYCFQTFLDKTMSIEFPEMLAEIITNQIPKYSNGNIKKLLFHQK
# [5] = Example 15: DIO mice, daily sc dosing; type: in vivo; conditions: high dose, between days 0 and 21
# Protocol: Diet-induced obesity (DIO) mice (N=8, average initial body weight=59 g) were subcutaneously injected once per day for four weeks with vehicle or one of the following: […] Blood glucose levels were measured at the 0, 15, 30, 60, and 120 min time points. FIG. 4a presents data from this experiment. Body weight was measured after 21 days and the change in total body weight and fat mass were determined (FIGS. 4b-c).
# [6] = Administration of GLP-1 conjugates to db/db mice (FIG. 2); type: in vivo; conditions: high dose
# [7] = Stability analysis in 100% human plasma (estrogen release); conditions: 1 mg/mL, pH 7.4, 37° C.
# [8] = high dose (400 μg/kg-day), after 23 days
# [9] = high dose, between days 0 and 14
# [10] = high dose, between days 0 and 21, vs GLP-1(Aib2E16Cex K40) (SEQ ID NO: 1647) alone, FIG. 4d
# [11] = over a period of 7 days, FIG. 7a
compound,measurement,setting,value
GLP-1(Aib^2A^22CexK^40)/Estrogen(17-ester): A22 GLP-1 analog conjugated to estrogen by 17-ester (H[Aib]EGTFTSDVSSYLEGQAAKEAIAWLVKGGPSSGAPPPSK-NH2; not fully specified (residue 40)),change in body weight,[1]; [8],greatest decrease in body weight
same,cumulative food intake,"[1]; high dose, 23 days",consumed the least amount of food
same,change in fat mass,"[1]; high dose, after 23 days",greatest decrease in body weight and fat mass
same,change in lean muscle mass,"[1]; high dose, after 23 days",least amount of lean muscle mass loss
same,change blood glucose,[1]; [9],greatest decrease in blood glucose levels
same,change in body weight,[2]; [8],greater decrease in body weight then mice that were administered GLP-1 alone
same,cumulative food intake,"[2]; high dose, 23 days",consumed less food than those that were administered GLP-1 alone
same,blood glucose levels,[2]; [9],greatest decrease in blood glucose levels
GLP-1(Aib^2E^16Cex K^40)/Estrogen(3-ester) (H[Aib]EGTFTSDVSSYLEEQAAKEFIAWLVKGGPSSGAPPPSK-NH2; not fully specified (residue 40)) [SEQ ID NO: 1658],change in blood glucose levels,"[3]; between days 0 and 7, FIG. 8b",greatest change
"CC[C@H](C)[C@H](NC(=O)[C@H](Cc1ccccc1)NC(=O)[C@H](CCC(=O)O)NC(=O)[C@H](CCCCN)NC(=O)[C@H](C)NC(=O)[C@H](C)NC(=O)[C@H](CCC(N)=O)NC(=O)[C@H](CCC(=O)O)NC(=O)[C@H](CCC(=O)O)NC(=O)[C@H](CC(C)C)NC(=O)[C@H](Cc1ccc(O)cc1)NC(=O)[C@H](CO)NC(=O)[C@H](CO)NC(=O)[C@@H](NC(=O)[C@H](CC(=O)O)NC(=O)[C@H](CO)NC(=O)[C@@H](NC(=O)[C@H](Cc1ccccc1)NC(=O)[C@@H](NC(=O)CNC(=O)[C@H](CCC(=O)O)NC(=O)C(C)(C)NC(=O)[C@@H](N)Cc1c[nH]cn1)[C@@H](C)O)[C@@H](C)O)C(C)C)C(=O)N[C@@H](C)C(=O)N[C@@H](Cc1c[nH]c2ccccc12)C(=O)N[C@@H](CC(C)C)C(=O)N[C@H](C(=O)N[C@@H](CCCCN)C(=O)NCC(=O)NCC(=O)N1CCC[C@H]1C(=O)N[C@@H](CO)C(=O)N[C@@H](CO)C(=O)NCC(=O)N[C@@H](C)C(=O)N1CCC[C@H]1C(=O)N1CCC[C@H]1C(=O)N1CCC[C@H]1C(=O)N[C@@H](CO)C(=O)NC(CCSSCCNC(=O)OCC(=O)[C@@]1(O)[C@H](C)C[C@H]2[C@@H]3CCC4=CC(=O)C=C[C@]4(C)[C@@]3(F)[C@@H](O)C[C@@]21C)C(N)=O)C(C)C (stereo partly drawn) [[Aib2, E16]GLP-1-CEX-homoCys40(S—SCH2CH2NHCO—O-DEX)]",EC50,[4],65.4 µM
GLP-1(Aib^2E^16K^40Cex)/Estrogen(3-ether) (H[Aib]EGTFTSDVSSYLEEQAAKEFIAWLVKGGPSSGAPPPSK-NH2; not fully specified (residue 40)) [SEQ ID NO: 1651],change in blood glucose levels,[5],greater change in blood glucose levels
same,change in blood glucose,[3],greatest change
same,change in blood glucose levels,"[3]; between days 0 and 7, FIG. 6c",greatest change
same,change in blood glucose levels,[3]; [10],greater change
same,total body weight,[3]; [11],greatest decrease
same,blood glucose levels,[3]; over a period of 7 days,greatest decrease
"d-amino acid containing GLP-1/Estrogen ester conjugate: d-amino acid containing GLP-1/Estrogen conjugate, estrogen covalently linked as ester that was unstable in vivo ([dA][Aib][dE]G[dT][dF][dT][dS][dD][dV][dS][dS][dY][dL][dE]G[dQ][dA][dA][dK][dE][dA][dI][dA][dW][dL][dV][dK]GG[dP][dS][dS]G[dA][dP][dP][dP][dS]K-NH2; not fully specified (residue 40))",total body weight,[3]; FIG. 10a,greatest decrease
same,change in blood glucose levels,"[3]; between days 0 and 7, vs comparable d-amino acid peptide with stable estrogen conjugate, FIG. 10b",greater change
GLP-1(Aib^2E^16Cex K^40) (H[Aib]EGTFTSDVSSYLEEQAAKEFIAWLVKGGPSSGAPPPSK-NH2) [SEQ ID NO: 1647],change in blood glucose,[3],greatest change
GLP-1(Aib^2E^16K^40Cex)/Estrogen(17-ester) (H[Aib]EGTFTSDVSSYLEEQAAKEFIAWLVKGGPSSGAPPPSK-NH2; not fully specified (residue 40)) [SEQ ID NO: 1655],change in blood glucose levels,[5],greater change in blood glucose levels
same,change in blood glucose levels,"[3]; between days 0 and 7, FIG. 6c",greatest change
same,change in blood glucose levels,[3]; [10],greater change
same,total body weight,[3]; [11],greatest decrease
same,blood glucose levels,[3]; over a period of 7 days,greatest decrease
GLP-1(Aib^2A^22CexK^40)/Estrogen(17-ester) (H[Aib]EGTFTSDVSSYLEGQAAKEAIAWLVKGGPSSGAPPPSK-NH2; not fully specified (residue 40)) [SEQ ID NO: 1656],change in body weight,"[3]; high dose, FIG. 3b",greatest decrease
same,change in fat mass,"[3]; high dose, FIG. 3c",greatest decrease
same,change in lean muscle mass,"[3]; high dose, FIG. 3d",least amount of change
same,changes in blood glucose,"[3]; high dose, between days 0 and 14, FIG. 3e",greatest decrease
same,change in body weight,[6]; FIG. 2a,"slightly greater decrease in body weight than mice that were administered GLP-1 alone, but similar to vehicle"
same,blood glucose levels,"[6]; between days 0 and 14, FIGS. 2b and 2c",greatest decrease
CC[C@H](C)[C@H](NC(=O)[C@H](Cc1ccccc1)NC(=O)[C@H](CCC(=O)O)NC(=O)[C@H](CCCCN)NC(=O)[C@H](C)NC(=O)[C@H](C)NC(=O)[C@H](CCC(N)=O)NC(=O)[C@H](CCC(=O)O)NC(=O)[C@H](CCC(=O)O)NC(=O)[C@H](CC(C)C)NC(=O)[C@H](Cc1ccc(O)cc1)NC(=O)[C@H](CO)NC(=O)[C@H](CO)NC(=O)[C@@H](NC(=O)[C@H](CC(=O)O)NC(=O)[C@H](CO)NC(=O)[C@@H](NC(=O)[C@H](Cc1ccccc1)NC(=O)[C@@H](NC(=O)CNC(=O)[C@H](CCC(=O)O)NC(=O)C(C)(C)NC(=O)[C@@H](N)Cc1c[nH]cn1)[C@@H](C)O)[C@@H](C)O)C(C)C)C(=O)N[C@@H](C)C(=O)N[C@@H](Cc1c[nH]c2ccccc12)C(=O)N[C@@H](CC(C)C)C(=O)N[C@H](C(=O)N[C@@H](CCCCN)C(=O)NCC(=O)NCC(=O)N1CCC[C@H]1C(=O)N[C@@H](CO)C(=O)N[C@@H](CO)C(=O)NCC(=O)N[C@@H](C)C(=O)N1CCC[C@H]1C(=O)N1CCC[C@H]1C(=O)N1CCC[C@H]1C(=O)N[C@@H](CO)C(=O)N[C@@H](CCCCNC(=O)CCC(=O)Oc1ccc2c(c1)CC[C@@H]1[C@@H]2CC[C@]2(C)[C@@H](OC(C)=O)CC[C@@H]12)C(N)=O)C(C)C [GLP-1/Estrogen(3-ester)],estrogen release in plasma,[7],substantial estrogen release after 3 hours
same,time to complete estrogen release in plasma,[7],≤ 6 h
"CC[C@H](C)[C@H](NC(=O)[C@H](Cc1ccccc1)NC(=O)[C@H](CCC(=O)O)NC(=O)[C@H](CCCCN)NC(=O)[C@H](C)NC(=O)[C@H](C)NC(=O)[C@H](CCC(N)=O)NC(=O)[C@H](CCC(=O)O)NC(=O)[C@H](CCC(=O)O)NC(=O)[C@H](CC(C)C)NC(=O)[C@H](Cc1ccc(O)cc1)NC(=O)[C@H](CO)NC(=O)[C@H](CO)NC(=O)[C@@H](NC(=O)[C@H](CC(=O)O)NC(=O)[C@H](CO)NC(=O)[C@@H](NC(=O)[C@H](Cc1ccccc1)NC(=O)[C@@H](NC(=O)CNC(=O)[C@H](CCC(=O)O)NC(=O)C(C)(C)NC(=O)[C@@H](N)Cc1c[nH]cn1)[C@@H](C)O)[C@@H](C)O)C(C)C)C(=O)N[C@@H](C)C(=O)N[C@@H](Cc1c[nH]c2ccccc12)C(=O)N[C@@H](CC(C)C)C(=O)N[C@H](C(=O)N[C@@H](CCCCN)C(=O)NCC(=O)NCC(=O)N1CCC[C@H]1C(=O)N[C@@H](CO)C(=O)N[C@@H](CO)C(=O)NCC(=O)N[C@@H](C)C(=O)N1CCC[C@H]1C(=O)N1CCC[C@H]1C(=O)N1CCC[C@H]1C(=O)N[C@@H](CO)C(=O)NC(C(N)=O)C(C)(C)SSCCNC(=O)OCC(=O)[C@@]1(O)[C@H](C)C[C@H]2[C@@H]3CCC4=CC(=O)C=C[C@]4(C)[C@@]3(F)[C@@H](O)C[C@@]21C)C(C)C (stereo partly drawn) [[Aib2, E16]GLP-1-CEX-Pen40(S—SCH2CH2NHCO—O-DEX)]",EC50,[4],73.3 µM
